# From patent US20230053540A1, “TREATMENT OF LIVER INJURY” (Massachusetts Institute of Technology, priority 2019, published 2023)
# Test system: hepatocytes
# Assay: Seq-Well scRNA-Seq of hepatocytes after APAP overdose (signature scores, DEG vs untreated)
# Assay type: in vivo, mouse
# [1] = time point A24 vs untreated (UT)
smiles,measurement,setting,value
"CC(=O)Nc1ccc(O)cc1 [APAP, acetaminophen]",Psme4 pct.1,time point A24,0.58
same,Ptprf pct.1,time point A24,0.588
same,Raf13 pct.1,time point A24,0.612
same,Ranbp2 pct.1,time point A24,0.484
same,Rarres2 pct.1,time point A24,0.83
same,Rpl13 pct.1,time point A24,0.306
same,Rplp1 pct.1,time point A24,0.597
same,Rps9 pct.1,time point A24,0.519
same,Rps15 pct.1,time point A24,0.379
same,Sbno1 pct.1,time point A24,0.36
same,Sc4mol pct.1,time point A24,0.5
same,Sco2 pct.1,time point A24,0.346
same,Sec31a pct.1,time point A24,0.462
same,Selenbp1 pct.1,time point A24,0.563
same,Sh3bgrl pct.1,time point A24,0.512
same,Slc38a10 pct.1,time point A24,0.449
same,Slc39a14 pct.1,time point A24,0.495
same,Srebf1 pct.1,time point A24,0.439
same,Srp72 pct.1,time point A24,0.597
same,Srpr pct.1,time point A24,0.532
same,Stat3 pct.1,time point A24,0.459
same,Stt3b pct.1,time point A24,0.485
same,Surf4 pct.1,time point A24,0.656
same,Tmem243 pct.1,time point A24,0.407
same,Tob1 pct.1,time point A24,0.565
same,Trib1 pct.1,time point A24,0.455
same,Trip12 pct.1,time point A24,0.504
same,Txndc5 pct.1,time point A24,0.48
same,Txnrd1 pct.1,time point A24,0.564
same,Uggt1 pct.1,time point A24,0.385
same,Uqcr11 pct.1,time point A24,0.769
same,Vkorc1 pct.1,time point A24,0.38
same,Xiap pct.1,time point A24,0.504
same,Zbtb20 pct.1,time point A24,0.566
same,Adck3 avg_logFC,[1],−0.2825
same,Arhgap5 avg_logFC,[1],0.2952
same,Arhgef12 avg_logFC,[1],0.3047
same,Arl5a avg_logFC,[1],0.2648
same,Atp1a1 avg_logFC,[1],0.27
same,Atp5e avg_logFC,[1],−0.3136
same,Atp5f1 avg_logFC,[1],−0.2872
same,Atp6v1f avg_logFC,[1],−0.2529
same,Atp11c avg_logFC,[1],0.2605
same,Atp13a3 avg_logFC,[1],0.3037
same,Azin1 avg_logFC,[1],0.2701
same,Bnip3 avg_logFC,[1],−0.2928
same,Brd2 avg_logFC,[1],0.2664
same,Bzw1 avg_logFC,[1],0.2841
same,Cald1 avg_logFC,[1],0.2589
same,Caprin1 avg_logFC,[1],0.2628
same,Ces3b avg_logFC,[1],−0.2867
same,Copb2 avg_logFC,[1],0.2839
same,Copz1 avg_logFC,[1],0.2577
same,Cox7b avg_logFC,[1],−0.2674
same,Cpne3 avg_logFC,[1],0.258
same,Ctnnb1 avg_logFC,[1],0.2957
same,Cyp4a14 avg_logFC,[1],−0.3729
same,Cyp27a1 avg_logFC,[1],−0.2516
same,Ddost avg_logFC,[1],0.2504
same,Dennd5b avg_logFC,[1],0.2935
same,Deptor avg_logFC,[1],0.2606
same,Dnajb9 avg_logFC,[1],0.2586
same,Dnajb11 avg_logFC,[1],0.3154
same,Eci1 avg_logFC,[1],−0.2764
same,Edem1 avg_logFC,[1],0.2869
same,Ehhadh avg_logFC,[1],−0.2505
same,Eif4b avg_logFC,[1],0.256
same,Ell2 avg_logFC,[1],0.2881
same,Eprs avg_logFC,[1],0.3013
same,Erbb2ip avg_logFC,[1],0.2797
same,Erp44 avg_logFC,[1],0.2795
same,Esd avg_logFC,[1],−0.2538
same,Fam120a avg_logFC,[1],0.28
same,Fasn avg_logFC,[1],0.2914
same,Fcgrt avg_logFC,[1],−0.2693
same,Gch1 avg_logFC,[1],−0.2825
same,Gm23935 avg_logFC,[1],0.7213
same,Gm24245 avg_logFC,[1],0.4242
same,Golga4 avg_logFC,[1],0.2718
same,Gpam avg_logFC,[1],0.2504
same,Grlf1 avg_logFC,[1],0.295
same,Gstm3 avg_logFC,[1],−0.3186
same,H6pd avg_logFC,[1],0.2614
same,Id3 avg_logFC,[1],−0.3511
same,Ide avg_logFC,[1],0.2517
same,Iqgap2 avg_logFC,[1],0.2547
same,Ireb2 avg_logFC,[1],0.2657
same,Jak1 avg_logFC,[1],0.2541
same,Lasp1 avg_logFC,[1],0.253
same,Lgr4 avg_logFC,[1],0.269
same,Lpin2 avg_logFC,[1],0.2776
same,Macf1 avg_logFC,[1],0.2617
same,Magt1 avg_logFC,[1],0.2633
same,Man2a1 avg_logFC,[1],0.2833
same,Mbnl1 avg_logFC,[1],0.2502
same,Met avg_logFC,[1],0.2883
same,Mt1 avg_logFC,[1],−0.3482
same,Mtss1 avg_logFC,[1],0.2876
same,Nadk2 avg_logFC,[1],0.2579
same,Narf avg_logFC,[1],0.2629
same,Ndufa6 avg_logFC,[1],−0.3068
same,Ndufb6 avg_logFC,[1],−0.3064
same,Ndufc2 avg_logFC,[1],−0.308
same,Nop10 avg_logFC,[1],−0.2649
same,Nr1i3 avg_logFC,[1],−0.2821
same,Nrp1 avg_logFC,[1],0.3341
same,Osbp19 avg_logFC,[1],0.2788
same,Osbpl1a avg_logFC,[1],0.2728
same,Ostc avg_logFC,[1],0.2658
same,Pik3c2a avg_logFC,[1],0.2594
same,Plin5 avg_logFC,[1],−0.2778
same,Prdx4 avg_logFC,[1],−0.3074
same,Prdx5 avg_logFC,[1],−0.2609
same,Prkaa2 avg_logFC,[1],0.2636
same,Prox1 avg_logFC,[1],0.2663
same,Proz avg_logFC,[1],0.2632
same,Psme4 avg_logFC,[1],0.2626
same,Ptprf avg_logFC,[1],0.3071
same,Raf13 avg_logFC,[1],0.2553
same,Ranbp2 avg_logFC,[1],0.2659
same,Rarres2 avg_logFC,[1],−0.2666
same,Rpl13 avg_logFC,[1],−0.2997
same,Rplp1 avg_logFC,[1],−0.2866
same,Rps9 avg_logFC,[1],−0.314
same,Rps15 avg_logFC,[1],−0.3561
same,Sbno1 avg_logFC,[1],0.2505
same,Sc4mol avg_logFC,[1],−0.2735
same,Sco2 avg_logFC,[1],−0.2929
same,Sec31a avg_logFC,[1],0.263
same,Selenbp1 avg_logFC,[1],−0.28
same,Sh3bgrl avg_logFC,[1],0.2513
same,Slc38a10 avg_logFC,[1],0.2855
same,Slc39a14 avg_logFC,[1],0.323
same,Srebf1 avg_logFC,[1],0.2762
same,Srp72 avg_logFC,[1],0.3107
same,Srpr avg_logFC,[1],0.3052
same,Stat3 avg_logFC,[1],0.2974
same,Stt3b avg_logFC,[1],0.3194
same,Surf4 avg_logFC,[1],0.2586
same,Tmem243 avg_logFC,[1],−0.2656
same,Tob1 avg_logFC,[1],0.3129
same,Trib1 avg_logFC,[1],0.2875
same,Trip12 avg_logFC,[1],0.3283
same,Txndc5 avg_logFC,[1],0.2901
same,Uggt1 avg_logFC,[1],0.2845
same,Uqcr11 avg_logFC,[1],−0.2632
same,Vkorc1 avg_logFC,[1],−0.2974
same,Xiap avg_logFC,[1],0.2602
same,Zbtb20 avg_logFC,[1],0.3791
same,pct.1 Acsl1,time point A48A96,0.977
same,pct.1 Aldh3a2,time point A48A96,0.592
same,pct.1 Atp1a1,time point A48A96,0.701
same,pct.1 Atp5d,time point A48A96,0.866
same,pct.1 C6,time point A48A96,0.653
same,pct.1 Ces1e,time point A48A96,0.791
same,pct.1 Ctsd,time point A48A96,0.831
same,pct.1 Cyp4a12a,time point A48A96,0.509
same,pct.1 Ech1,time point A48A96,0.951
same,pct.1 F5,time point A48A96,0.881
same,pct.1 F9,time point A48A96,0.836
same,pct.1 F12,time point A48A96,0.922
same,pct.1 Fcgrt,time point A48A96,0.806
same,pct.1 Fn1,time point A48A96,0.932
same,pct.1 Ftl1,time point A48A96,0.438
same,pct.1 Gabarapl1,time point A48A96,0.917
same,pct.1 Gclm,time point A48A96,0.893
same,pct.1 Glul,time point A48A96,0.257
same,pct.1 Gm4076,time point A48A96,0.047
same,pct.1 Gm20594,time point A48A96,0.222
same,pct.1 Gsta2,time point A48A96,0.583
same,pct.1 Hadha,time point A48A96,0.895
same,pct.1 Hal,time point A48A96,0.824
same,pct.1 Hgfac,time point A48A96,0.682
same,pct.1 Hsd17b4,time point A48A96,0.943
same,pct.1 Ifitm3,time point A48A96,0.823
same,pct.1 Inmt,time point A48A96,0.935
same,pct.1 Lpgat1,time point A48A96,0.747
same,pct.1 Lpin1,time point A48A96,0.515
same,pct.1 Ndufb2,time point A48A96,0.814
same,pct.1 Park7,time point A48A96,0.902
same,pct.1 Pck1,time point A48A96,0.998
same,pct.1 Pipox,time point A48A96,0.774
same,pct.1 Ppp2r5a,time point A48A96,0.803
same,pct.1 Ptms,time point A48A96,0.857
same,pct.1 Rarres1,time point A48A96,0.327
same,pct.1 Rpl32,time point A48A96,0.766
same,pct.1 Rpl41,time point A48A96,0.304
same,pct.1 Sardh,time point A48A96,0.939
same,pct.1 Sdhd,time point A48A96,0.837
same,pct.1 Sds,time point A48A96,0.671
same,pct.1 Sec61a1,time point A48A96,0.7
same,pct.1 Serpina12,time point A48A96,0.38
same,pct.1 Sfxn1,time point A48A96,0.702
same,pct.1 Slc2a2,time point A48A96,0.716
same,pct.1 Slc37a4,time point A48A96,0.717
same,pct.1 Tmem106b,time point A48A96,0.787
same,pct.1 Ubb,time point A48A96,0.465
same,pct.1 Ubxn4,time point A48A96,0.802
same,pct.1 Upb1,time point A48A96,0.895
same,pct.1 Usmg5,time point A48A96,0.677
same,pct.1 mmu-mir-6236,time point A48A96,0.859
same,pct.1 mt-Atp6,time point A48A96,0.326
